# Data taken from ChEMBL document CHEMBL1201862, “PubChem BioAssay data set” (2004).
# Activity calls are given as the source filed them.
# Assays:
# [1] = cytotoxicity toward DRD oncogenic fibroblasts, dose response, cell-based, non-viral oncogenic, luminescence (AID 1934); format: functional; details: Homo sapiens
# [2] = inhibitors of SNCA 5'UTR-driven reporter translation, confirmation, H4 neuroglioma cells, luminescence (AID 1988); format: functional, cell-based
# BJ [3] = assay: cytotoxicity toward BJ-TERT-LT-ST fibroblasts, dose response, cell-based, RAS-independent, luminescence (AID 1935); format: functional; details: Homo sapiens;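 note: BJ fibroblasts immortalized with TERT plus LT and ST oncogenes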
# [4] = inhibitors of SNCA 5'UTR-driven translation, confirmation, luminescence, H4 neuroglioblastoma cells, dose confirmation (AID 2454); format: functional, cell-based;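 note: H4 neuroglioblastoma cells carrying an alpha-synuclein 5'UTR luciferase reporter; potency for inhibition of the luciferase signal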
# cells [5] = format: functional, cell-based
# [6] = luciferase reporter signal reduction – luminescence, H4-C neuroglioblastoma cells, dose response (AID 2458); format: functional, cell-based;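 note: H4 neuroglioblastoma cells stably carrying a luciferase reporter gene fusion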
# [7] = inhibitors of firefly luciferase expression or activity, dose response, H4 neuroglioma cells, luminescence (AID 1990); format: functional, cell-based
# BJ [8] = assay: cytotoxicity toward BJ-TERT fibroblasts, dose response, cell-based, RAS-independent, luminescence (AID 1933); format: functional; details: Homo sapiens
# BJ [9] = assay: cells; format: functional, cell-based; details: Homo sapiens
# [10] = Luminescence Cell-Based Dose Response HTS to Identify Inhibitors of 5'UTR Stem-Loop Driven Prion Protein mRNA Translation in H4 Neuroglioblastoma Cells. [Related pubchem assays: 1827 (Project Summary), 1813 (Primary HTS)]; format: functional
# [11] = molecular target: T1, Neuropeptide Y receptor type 1 (Homo sapiens, UniProt P25929); format: functional;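 note: HEK293 cells with a CNG channel challenged with NPY then isoproterenol; potency as antagonist that reverses NPY suppression of cAMP signal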
# T1 sequence (P25929 whole entry): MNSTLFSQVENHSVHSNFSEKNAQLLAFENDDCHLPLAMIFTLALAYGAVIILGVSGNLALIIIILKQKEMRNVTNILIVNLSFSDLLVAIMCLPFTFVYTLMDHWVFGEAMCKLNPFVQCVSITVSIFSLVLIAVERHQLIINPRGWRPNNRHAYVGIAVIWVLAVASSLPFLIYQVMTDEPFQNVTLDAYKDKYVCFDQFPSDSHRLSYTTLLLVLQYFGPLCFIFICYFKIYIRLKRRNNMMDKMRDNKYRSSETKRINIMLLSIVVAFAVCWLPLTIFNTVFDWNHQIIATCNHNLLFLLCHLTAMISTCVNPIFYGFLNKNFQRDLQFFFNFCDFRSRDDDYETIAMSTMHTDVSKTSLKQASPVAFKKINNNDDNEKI
# [12] = molecular target: T2, Neuropeptide Y receptor type 2 (Homo sapiens, UniProt P49146); format: functional, cell-based;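 note: HEK293 cells expressing the receptor and a CNG channel; stimulus was NPY near EC95 followed by isoproterenol to raise cAMP; antagonist potency measured as restoring cAMP signal that NPY suppresses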
# T2 sequence (P49146 whole entry): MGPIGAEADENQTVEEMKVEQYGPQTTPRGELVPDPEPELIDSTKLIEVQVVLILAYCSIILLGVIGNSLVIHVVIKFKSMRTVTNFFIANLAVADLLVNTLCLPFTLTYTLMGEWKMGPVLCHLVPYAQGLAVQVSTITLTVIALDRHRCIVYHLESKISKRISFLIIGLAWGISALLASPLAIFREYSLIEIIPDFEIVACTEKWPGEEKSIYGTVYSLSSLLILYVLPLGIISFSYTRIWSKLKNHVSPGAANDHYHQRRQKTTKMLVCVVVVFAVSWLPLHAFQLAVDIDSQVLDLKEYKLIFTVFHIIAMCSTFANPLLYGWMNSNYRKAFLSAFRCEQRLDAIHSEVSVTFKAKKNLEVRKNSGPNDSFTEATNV
# Estrogen receptor beta = Estrogen receptor beta (Homo sapiens, UniProt Q92731);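 note: recombinant ER-beta bound to coactivator SRC1 peptide in presence of estradiol agonist; inhibitors block coactivator peptide binding and lower the FRET signal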
# Sequence of Estrogen receptor beta (Q92731 whole entry): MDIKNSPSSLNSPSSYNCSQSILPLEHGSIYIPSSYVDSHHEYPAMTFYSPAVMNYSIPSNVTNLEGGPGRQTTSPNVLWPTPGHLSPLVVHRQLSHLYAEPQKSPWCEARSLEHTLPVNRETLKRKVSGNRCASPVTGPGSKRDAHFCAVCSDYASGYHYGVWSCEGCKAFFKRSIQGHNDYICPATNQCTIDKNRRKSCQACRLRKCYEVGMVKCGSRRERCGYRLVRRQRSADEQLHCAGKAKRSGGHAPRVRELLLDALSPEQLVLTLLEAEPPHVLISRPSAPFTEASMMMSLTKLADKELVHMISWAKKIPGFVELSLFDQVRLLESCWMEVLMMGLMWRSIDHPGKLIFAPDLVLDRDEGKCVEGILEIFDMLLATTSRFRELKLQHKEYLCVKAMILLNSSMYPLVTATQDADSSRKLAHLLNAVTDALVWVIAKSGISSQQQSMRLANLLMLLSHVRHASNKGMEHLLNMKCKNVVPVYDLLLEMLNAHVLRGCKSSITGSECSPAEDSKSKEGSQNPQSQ
# [13] = molecular target: T3, Heat shock factor protein 1 (Mus musculus, UniProt P38532); assay: inhibition of MG132-induced HSE-luciferase signal, confirmation, cell-based, NIH3T3, luminescence, dose retest (AID 2382); format: functional;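 note: NIH3T3 fibroblasts with HSF1-driven luciferase reporter stressed by proteasome inhibitor MG132; luminescence from HSF1-driven luciferase expression after 8 hours of MG132 stress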
# T3 sequence (P38532 whole entry): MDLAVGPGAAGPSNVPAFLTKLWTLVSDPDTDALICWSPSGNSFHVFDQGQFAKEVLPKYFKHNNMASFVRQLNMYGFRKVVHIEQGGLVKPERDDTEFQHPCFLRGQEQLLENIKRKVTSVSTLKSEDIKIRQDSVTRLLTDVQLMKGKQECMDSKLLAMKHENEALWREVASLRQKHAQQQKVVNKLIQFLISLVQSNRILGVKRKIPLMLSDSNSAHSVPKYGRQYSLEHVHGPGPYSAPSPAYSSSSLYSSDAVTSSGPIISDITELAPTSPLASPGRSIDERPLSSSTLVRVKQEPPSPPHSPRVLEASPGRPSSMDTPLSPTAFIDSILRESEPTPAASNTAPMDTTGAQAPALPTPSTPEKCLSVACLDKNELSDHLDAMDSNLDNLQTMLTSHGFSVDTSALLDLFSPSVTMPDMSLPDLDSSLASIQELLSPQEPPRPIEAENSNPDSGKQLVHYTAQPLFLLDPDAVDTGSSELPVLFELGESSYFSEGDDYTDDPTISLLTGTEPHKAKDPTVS
# Estrogen receptor = molecular target: T4, Estrogen receptor (Homo sapiens, UniProt P03372);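 note: potency for inhibiting coactivator peptide recruitment to the receptor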
# T4 sequence (P03372 whole entry): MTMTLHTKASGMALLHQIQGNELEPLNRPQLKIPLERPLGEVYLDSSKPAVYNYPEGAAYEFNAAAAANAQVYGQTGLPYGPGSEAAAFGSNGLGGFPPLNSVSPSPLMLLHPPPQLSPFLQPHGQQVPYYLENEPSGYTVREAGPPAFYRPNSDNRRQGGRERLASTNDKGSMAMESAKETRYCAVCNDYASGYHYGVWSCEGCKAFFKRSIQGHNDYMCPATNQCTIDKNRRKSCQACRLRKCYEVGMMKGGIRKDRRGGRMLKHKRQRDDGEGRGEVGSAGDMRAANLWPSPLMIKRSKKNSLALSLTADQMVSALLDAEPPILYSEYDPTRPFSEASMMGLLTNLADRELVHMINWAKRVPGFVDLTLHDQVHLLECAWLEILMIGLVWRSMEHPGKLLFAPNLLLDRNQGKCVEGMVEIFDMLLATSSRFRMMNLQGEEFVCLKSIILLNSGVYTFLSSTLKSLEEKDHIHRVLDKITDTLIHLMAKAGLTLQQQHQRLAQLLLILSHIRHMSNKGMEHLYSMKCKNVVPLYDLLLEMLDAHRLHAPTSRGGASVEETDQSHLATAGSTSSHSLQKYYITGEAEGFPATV
# Cytochrome P450 3A4 = Cytochrome P450 3A4 (Homo sapiens, UniProt P08684); details: Potency;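 note: confirmatory qHTS run detecting inhibitors and substrates of CYP3A4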
# Sequence of Cytochrome P450 3A4 (P08684 whole entry): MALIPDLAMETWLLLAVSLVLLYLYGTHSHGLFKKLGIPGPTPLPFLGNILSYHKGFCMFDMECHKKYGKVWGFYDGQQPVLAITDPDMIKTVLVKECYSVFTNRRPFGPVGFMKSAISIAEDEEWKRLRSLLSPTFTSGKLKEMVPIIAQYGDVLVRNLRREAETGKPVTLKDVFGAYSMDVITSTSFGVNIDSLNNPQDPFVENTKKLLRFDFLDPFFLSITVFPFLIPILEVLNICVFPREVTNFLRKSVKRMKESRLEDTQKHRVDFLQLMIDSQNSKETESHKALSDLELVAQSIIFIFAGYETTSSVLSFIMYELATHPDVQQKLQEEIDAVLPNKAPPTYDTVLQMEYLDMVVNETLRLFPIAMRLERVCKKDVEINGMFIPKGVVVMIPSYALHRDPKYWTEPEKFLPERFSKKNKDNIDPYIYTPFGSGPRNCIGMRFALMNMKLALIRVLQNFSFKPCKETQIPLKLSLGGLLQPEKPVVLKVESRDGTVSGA
# [14] = molecular target: Heat shock protein HSP 90-alpha (Homo sapiens, UniProt P07900); format: functional, organism-based
# cells [15] = assay: cells
# [16] = inhibitors of intracellular T. cruzi replication, confirmation, NIH3T3 host cells, beta-gal luminescence (AID 2044); format: functional, cell-based;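 note: intracellular parasites grown in NIH/3T3 mouse fibroblasts as host cells; luminescent beta-galactosidase reporter signal from transgenic T. cruzi replicating inside host cells; inhibitors lower the luminescence signal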
# [17] = cytotoxicity toward NIH3T3 fibroblasts, dose response, counter-screen, cell-based, ATP luminescence, mouse fibroblasts (AID 2010); format: functional;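 note: cells exposed to compound for about 90 hours before reading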
# [18] = P. falciparum Dd2 growth inhibitors, dose response, SYBR Green, cherry-picked samples (AID 1159567); format: functional, cell-based
# [19] = HepG2 cell cytotoxicity, dose response, cytotoxicity control, plate reader, dry powder samples (AID 1159569); format: functional, cell-based;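 note: inhibitor potency with signal falling toward the positive control level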
# [20] = P. falciparum 3D7-ScDHODH growth inhibitors, dose response, SYBR Green, dry powder samples (AID 1159570); format: functional, cell-based;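 note: parasite growth measured after 72 hours of compound exposure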
# [21] = inhibitors of HIV Env-driven cell fusion, dose response, cherry-pick (AID 652057); format: functional, cell-based
# [22] = P. falciparum Dd2 growth inhibitors, dose response, SYBR Green, dry powder samples (AID 1159566); format: functional, cell-based;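 note: potency for growth inhibition with lower SYBR green DNA signal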
# [23] = P. falciparum ATP4 D1247Y mutant growth inhibitors, dose response, NITD609-resistant line, SYBR Green, dry powder (AID 1159571); format: functional, cell-based;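 note: parasites synchronized at ring stage by sorbitol before testing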
# [24] = inhibitors of Vif binding to APOBEC3G peptide, primary screen, biochemical, TR-FRET, GST-Vif 1-94, biotin-A3G peptide, dose response retest (AID 1117319); format: functional;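 note: TR-FRET signal of purified GST-Vif binding a biotinylated A3G peptide; inhibitors lower the FRET signal by blocking Vif and A3G binding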
# Cytochrome P450 2C19 = Cytochrome P450 2C19 (Homo sapiens, UniProt P33261); assay: Cytochrome panel assay with activity outcomes. Panel member name: p450-cyp2c19 Compounds with AC50 equal or less than 10 uM are considered active; format: functional
# Sequence of Cytochrome P450 2C19 (P33261 whole entry): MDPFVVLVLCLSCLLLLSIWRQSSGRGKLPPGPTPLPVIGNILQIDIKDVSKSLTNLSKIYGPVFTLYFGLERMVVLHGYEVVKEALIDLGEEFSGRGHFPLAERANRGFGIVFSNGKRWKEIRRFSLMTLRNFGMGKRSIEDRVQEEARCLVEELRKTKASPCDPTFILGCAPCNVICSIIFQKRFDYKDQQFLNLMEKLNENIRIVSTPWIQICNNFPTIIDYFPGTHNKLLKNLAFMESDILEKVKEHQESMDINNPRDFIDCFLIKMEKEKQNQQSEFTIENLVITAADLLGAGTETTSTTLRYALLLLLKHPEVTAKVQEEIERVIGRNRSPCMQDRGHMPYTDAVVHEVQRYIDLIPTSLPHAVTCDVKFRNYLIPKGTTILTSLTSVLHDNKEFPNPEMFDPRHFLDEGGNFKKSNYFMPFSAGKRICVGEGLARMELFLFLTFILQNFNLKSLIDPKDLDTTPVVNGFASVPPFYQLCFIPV
# Cytochrome P450 2C9 = Cytochrome P450 2C9 (Homo sapiens, UniProt P11712)
# Sequence of Cytochrome P450 2C9 (P11712 whole entry): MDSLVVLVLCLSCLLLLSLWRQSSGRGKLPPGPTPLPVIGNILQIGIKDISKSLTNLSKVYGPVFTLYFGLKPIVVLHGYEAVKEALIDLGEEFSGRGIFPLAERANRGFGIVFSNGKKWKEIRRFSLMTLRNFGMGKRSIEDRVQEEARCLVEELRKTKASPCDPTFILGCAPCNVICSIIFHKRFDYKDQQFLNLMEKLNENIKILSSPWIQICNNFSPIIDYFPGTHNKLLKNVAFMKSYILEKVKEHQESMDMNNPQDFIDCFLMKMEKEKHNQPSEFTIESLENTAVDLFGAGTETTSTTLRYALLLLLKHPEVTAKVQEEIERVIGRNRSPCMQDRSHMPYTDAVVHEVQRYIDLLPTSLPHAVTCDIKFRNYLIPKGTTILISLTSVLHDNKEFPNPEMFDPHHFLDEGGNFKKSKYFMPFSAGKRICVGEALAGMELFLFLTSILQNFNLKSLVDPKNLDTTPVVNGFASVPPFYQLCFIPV
# [25] = A Cell Based Secondary Assay To Explore Cytotoxicity of Compounds that Sensitize Mycobacterium Tuberculosis to Beta-Lactam Antibiotics.; format: functional
# [26] = Luminescence Cell-Based Dose Confirmation HTS to Identify Inhibitors of Platelet Dense Granule Release. [Related pubchem assays: 1663 (Primary HTS), 1678 (Summary of Project)]; format: functional
# [27] = molecular target: Luciferin 4-monooxygenase (Photinus pyralis, UniProt P08659); assay: firefly luciferase enzyme inhibitors, dose response, biochemical, luminescence (AID 1891)
# Sequence of Luciferin 4-monooxygenase (P08659 whole entry): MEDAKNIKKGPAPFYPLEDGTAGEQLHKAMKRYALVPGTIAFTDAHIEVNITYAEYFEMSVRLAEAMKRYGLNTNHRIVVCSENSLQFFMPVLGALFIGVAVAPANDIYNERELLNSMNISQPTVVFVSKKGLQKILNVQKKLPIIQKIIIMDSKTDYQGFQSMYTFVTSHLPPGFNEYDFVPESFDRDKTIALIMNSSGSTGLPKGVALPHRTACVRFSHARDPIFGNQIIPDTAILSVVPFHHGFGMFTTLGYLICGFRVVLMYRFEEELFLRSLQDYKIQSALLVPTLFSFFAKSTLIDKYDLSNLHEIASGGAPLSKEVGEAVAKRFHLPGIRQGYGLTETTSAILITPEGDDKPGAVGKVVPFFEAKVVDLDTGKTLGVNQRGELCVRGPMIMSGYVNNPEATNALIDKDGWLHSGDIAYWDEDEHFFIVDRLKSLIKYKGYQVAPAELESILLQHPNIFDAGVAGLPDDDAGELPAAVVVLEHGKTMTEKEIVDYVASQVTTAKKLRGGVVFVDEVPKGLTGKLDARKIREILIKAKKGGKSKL
# [28] = microbe, parasite or virus in culture; format: functional; details: Mycobacterium tuberculosis
# Protein Tat = molecular target: T5, Protein Tat (Human immunodeficiency virus type 1 group M subtype B (isolate HXB2)(HIV-1), UniProt P04608); format: functional;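 note: tat binding to TAR RNA read out by fluorescence polarization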
# T5 sequence (P04608 whole entry): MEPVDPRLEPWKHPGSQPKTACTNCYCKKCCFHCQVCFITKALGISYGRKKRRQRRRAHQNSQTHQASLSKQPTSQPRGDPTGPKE
# Bcl-2-like protein 1 = Bcl-2-like protein 1 (Homo sapiens, UniProt Q07817); assay: BCL-XL inhibitors, dose response, selectivity assay for MCL1 inhibitor project, biochemical, fluorescence polarization, 1536-well (AID 2218)
# Sequence of Bcl-2-like protein 1 (Q07817 whole entry): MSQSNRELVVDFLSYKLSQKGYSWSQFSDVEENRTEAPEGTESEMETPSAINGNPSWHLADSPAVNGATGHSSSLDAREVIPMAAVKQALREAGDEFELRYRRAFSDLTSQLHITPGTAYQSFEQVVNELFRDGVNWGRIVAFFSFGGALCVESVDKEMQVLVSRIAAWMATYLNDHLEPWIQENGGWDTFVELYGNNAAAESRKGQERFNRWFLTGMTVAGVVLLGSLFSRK
# [29] = molecular target: Induced myeloid leukemia cell differentiation protein Mcl-1 (Homo sapiens, UniProt Q07820); assay: MCL1-BIM BH3 interaction inhibitors, dose response, biochemical, fluorescence polarization, BIM-BH3 peptide, 1536-well (AID 2217)
# Sequence of Induced myeloid leukemia cell differentiation protein Mcl-1 (Q07820 whole entry): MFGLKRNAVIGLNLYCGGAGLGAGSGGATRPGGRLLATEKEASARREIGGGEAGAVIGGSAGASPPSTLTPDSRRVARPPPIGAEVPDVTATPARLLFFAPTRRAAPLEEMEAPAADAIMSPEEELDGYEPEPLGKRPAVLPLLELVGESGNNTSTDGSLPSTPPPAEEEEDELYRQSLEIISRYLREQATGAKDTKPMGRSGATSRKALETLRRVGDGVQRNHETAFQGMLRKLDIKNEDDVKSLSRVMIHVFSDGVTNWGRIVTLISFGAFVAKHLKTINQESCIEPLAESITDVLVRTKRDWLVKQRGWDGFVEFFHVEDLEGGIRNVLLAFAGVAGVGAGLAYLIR
smiles,measurement,setting,value
Brc1ccc(C2=Nn3c(nnc3-c3[nH]nc4c3CCC4)SC2)cc1,EC50,[1],1.65 µM (active)
same,EC50,[2],< 0.1 µM (active)
same,EC50,BJ [3],138 µM (inconclusive)
same,EC50,[4],1.97 µM (active)
same,EC50,cells [5],2.12 µM (active)
same,EC50,[6],> 3.8 µM (not active)
same,EC50,[7],11.9 µM (active)
same,EC50,BJ [8],2.33 µM (active)
same,EC50,BJ [9],43.5 µM (active)
same,EC50,[10],> 120 µM (not active)
O=C(COC(=O)c1ccc(-c2ccccc2)cc1)Nc1ccccc1-c1ccccc1,IC50,[11],5.72 µM (active)
same,IC50,[12],6.97 µM (active)
COc1ccc(NC(=O)c2ccco2)cc1N,IC50,Estrogen receptor beta,10.7 µM (active)
same,EC50,[13],> 195 µM (not active)
same,IC50,Estrogen receptor,36.1 µM (not active)
C(#CC1C=CC2OC(c3ccccc3)OCC2O1)c1ccccc1 (centres undefined),AC50,Cytochrome P450 3A4,2.51 µM (inconclusive)
Cc1sc(NC(=O)c2ccco2)c(C(c2cccnc2)N2CCC(C)CC2)c1C (centres undefined),AC50,[14],4.94 µM (active)
same,EC50,cells [15],0.182 µM (active)
same,EC50,[16],< 0.1 µM (active)
same,EC50,[17],9.92 µM (active)
O=C(O)CSc1nnc(-c2ccc3c(c2)OCO3)o1,IC50,[11],> 35 µM (not active)
same,IC50,[12],> 35 µM (not active)
COc1cc(CN2CCCCC2)ccc1OCc1ccccc1,EC50,cells [15],0.67 µM (active)
same,EC50,[16],< 0.1 µM (active)
same,EC50,[17],> 60 µM (not active)
C[C@@H]1CN([C@H](C)CO)S(=O)(=O)c2ccc(-c3ccncc3)cc2O[C@@H]1CN(C)Cc1ccc(Oc2ccccc2)cc1,AC50,[18],1.16 µM (active)
same,AC50,[19],> 100 µM (inactive)
same,AC50,[20],0.589 µM (active)
same,AC50,[21],22.4 µM (active)
same,AC50,[22],0.539 µM (active)
same,AC50,[23],0.616 µM (active)
COc1ccc(/C=C(/NC(C)=O)C(=O)O)cc1,IC50,[24],> 100 µM (active)
same,AC50,Cytochrome P450 2C19,11.2 µM (inconclusive)
same,AC50,Cytochrome P450 2C9,10 µM (inconclusive)
C=C(C)COc1ccc2c(C)c(C)c(=O)oc2c1OCC(=C)C,CC50,[25],> 40 µM (active)
CCc1cc2c(CN3CCN(CC)CC3)cc(=O)oc2cc1O,IC50,[24],> 100 µM (active)
COC(=O)c1c(CSc2cccc(C)c2)noc1C(=O)NCc1ccco1,CC50,[25],> 40 µM (active)
Cc1nc(N2CCC(C)CC2)c2oc3ccccc3c2n1,EC50,[26],> 112 µM (not active)
same,EC50,[27],109 µM (active)
same,CC50,[28],> 40 µM (active)
same,IC50,[11],7.23 µM (active)
same,IC50,[12],5.77 µM (active)
O=C1NC(=O)C(=CN2CCc3ccccc32)C(=O)N1,IC50,Protein Tat,> 100 µM (active)
C[C@H](NS(=O)(=O)OCC(Cl)(Cl)Cl)C1CC1c1ccccc1 (some centres undefined),IC50,Bcl-2-like protein 1,> 109 µM (not active)
same,IC50,[29],65.4 µM (not active)
O=C(COc1ncnc2cc([N+](=O)[O-])ccc12)NCCc1ccc(Cl)cc1,EC50,cells [15],0.377 µM (active)
same,EC50,[16],< 0.1 µM (active)
same,EC50,[17],> 30 µM (not active)
CCc1ccc2oc(-c3cc(N)cc(C)c3O)nc2c1,CC50,[25],> 40 µM (active)
COC(=O)[C@@]1(C)C=C[C@@H](Cc2ccccc2)N1C(=O)c1ccccc1,AC50,Cytochrome P450 3A4,20 µM (inconclusive)
Cc1ccc(C2SCC(=O)N2Cc2cn3ccsc3n2)o1 (centres undefined),IC50,[24],> 100 µM (active)
O=C(CCC(=O)Nc1nnc(C2CCCCC2)s1)NCC1CCCO1 (centres undefined),IC50,Estrogen receptor beta,> 50 µM (not active)
same,IC50,Estrogen receptor,> 50 µM (not active)
CCCCCCC1=Cc2cc(OC)c(OC)cc2C(C(C(C)=O)C(=O)OC)O1 (centres undefined),AC50,Cytochrome P450 3A4,3.16 µM (inconclusive)
C[C@@H]1CN([C@H](C)CO)S(=O)(=O)c2ccc(-c3cccc(C(=O)N(C)C)c3)cc2O[C@H]1CN(C)Cc1ccc2c(c1)OCO2,AC50,[18],2.57 µM (active)
same,AC50,[19],64.7 µM (active)
same,AC50,[20],2.27 µM (active)
same,AC50,[22],1.3 µM (active)
same,AC50,[23],1.51 µM (active)
